From paper PMC6222422, “Synthesis and Biological Evaluation of Novel Indole-Derived Thioureas” (Molecules : A Journal of Synthetic Chemistry and Natural …, 2018)

Tests used:
[1] = system: CV-B5; test: microbe, parasite or virus in culture; type: cell-based, coxsackievirus B5; details: Enterovirus B, CVB5, Vero 76, read-out: CV-B5 EC50
[2] = system: Sb-1; test: microbe, parasite or virus in culture; type: cell-based, poliovirus type-1; details: Enterovirus C, Vero 76, read-out: Sb-1 EC50
[3] = system: Reo-1; test: microbe, parasite or virus in culture; type: cell-based, reovirus type-1; details: Reovirus sp., BHK, read-out: Reo-1 EC50
[4] = in vitro; details: Syrian hamster (Mesocricetus auratus)
[5] = in vitro; details: African green monkey (Cercopithecus aethiops)
[6] = system: HSV-1; test: microbe, parasite or virus in culture; type: cell-based, human herpes 1; details: Human alphaherpesvirus 1, Vero 76, read-out: HSV-1 EC50
[7] = system: BVDV; test: microbe, parasite or virus in culture; type: cell-based, bovine viral diarrhoea virus; details: for EC50: Bovine viral diarrhea virus isolates and strains, MDBK, in Bos taurus, read-out: BVDV EC50
[8] = system: YFV; test: microbe, parasite or virus in culture; type: cell-based; details: Yellow fever virus, BHK, read-out: YFV EC50
[9] = system: RSV; test: microbe, parasite or virus in culture; type: cell-based, human respiratory syncytial virus; details: human respiratory syncytial virus, Vero 76, read-out: RSV EC50
[10] = system: VSV; test: microbe, parasite or virus in culture; type: cell-based; details: Vesicular stomatitis virus, Vero 76, read-out: VSV EC50
[11] = system: VV; test: microbe, parasite or virus in culture; type: cell-based; details: Orthopoxvirus vaccinia, Vero 76, read-out: VV EC50
[12] = in vitro; details: human
[13] = in vitro; details: cattle (Bos taurus)
[14] = system: HIV-1; test: microbe, parasite or virus in culture; details: Human immunodeficiency virus 1, MT4, read-out: HIV-1 EC50

Structure (SMILES) | EC50 [1] [µM] | EC50 [2] [µM] | EC50 [3] [µM] | CC50 [4] [µM] | CC50 [5] [µM] | EC50 [6] [µM] | EC50 [7] [µM] | EC50 [8] [µM] | EC50 [9] [µM] | EC50 [10] [µM] | EC50 [11] [µM] | CC50 [12] [µM] | CC50 [13] [µM] | EC50 [14] [µM] | activity against BVDV (in words) [7] | melting point [°C]
C[C@@]1(O)[C@H](O)[C@@H](CO)O[C@H]1n1ccc(N)nc1=O [2′-C-methyl-cytidine, 2′-C-methylcytidine, reference compound] | 18 ± 0.9 | 7.3 ± 0.4 | 10 ± 1.2 | > 100 | > 100 | – | – | – | – | – | – | – | – | – | – | –
Nc1nc2c(ncn2COCCO)c(=O)[nH]1 [Acycloguanosine, acycloguanosine, reference compound] | – | – | – | – | > 100 | 3 ± 0.2 | – | – | – | – | – | – | – | – | – | –
S=C(NCCc1c[nH]c2ccccc12)Nc1ccccc1 [Compound 1, 1-(2-(1H-Indol-3-yl)ethyl)-3-phenylthiourea] | > 64 | > 64 | > 48 | 48 | 64 | > 64 | > 100 | > 48 | > 64 | > 64 | > 64 | 31 | > 100 | > 31 | – | –
S=C(NCCc1c[nH]c2ccccc12)Nc1ccc(Cl)cc1 [Compound 4, 1-(2-(1H-Indol-3-yl)ethyl)-3-(4-chlorophenyl)thiourea] | > 55 | > 55 | > 47 | 47 | 55 | > 55 | > 100 | > 47 | > 55 | > 55 | > 55 | 45 | > 100 | > 45 | – | –
O=C(NC(=S)NCCc1c[nH]c2ccccc12)c1ccccc1 [Compound 5, 1-(2-(1H-Indol-3-yl)ethyl)-3-benzoylthiourea] | > 29 | > 29 | > 34 | 34 | 29 | > 29 | 20 ± 1.5 | > 34 | > 29 | > 29 | > 29 | 38 | 67 | > 38 | showed activity | –
S=C(NCCc1c[nH]c2ccccc12)Nc1cccc(Br)c1 [Compound 7, 1-(2-(1H-Indol-3-yl)ethyl)-3-(3-bromophenyl)thiourea] | > 12 | > 12 | > 10 | 10 | 12 | > 12 | 20 ± 2 | > 10 | > 12 | > 12 | > 12 | 45 | 55 | > 45 | showed activity | 152 to 154
S=C(NCCc1c[nH]c2ccccc12)NC1CCCCC1 [Compound 9, 1-(2-(1H-Indol-3-yl)ethyl)-3-cyclohexylthiourea] | > 14 | > 14 | > 13 | 13 | 14 | > 14 | > 55 | > 13 | > 14 | > 14 | > 14 | 49 | 55 | > 49 | – | –
S=C(NCCc1c[nH]c2ccccc12)NCc1ccccc1 [Compound 10, 1-(2-(1H-Indol-3-yl)ethyl)-3-benzylthiourea] | 30 ± 2.4 | > 100 | > 52 | 52 | > 100 | > 100 | > 100 | > 52 | > 100 | > 100 | > 100 | 78 | > 100 | > 78 | – | –
Fc1ccccc1NC(=S)NCCc1c[nH]c2ccccc12 [Compound 11, 1-(2-(1H-Indol-3-yl)ethyl)-3-(2-fluorophenyl)thiourea] | > 73 | > 73 | > 34 | 34 | 73 | > 73 | > 69 | > 34 | > 73 | > 73 | > 73 | 48 | 69 | > 48 | – | 167 to 168
Fc1cccc(NC(=S)NCCc2c[nH]c3ccccc23)c1 [Compound 12, 1-(2-(1H-Indol-3-yl)ethyl)-3-(3-fluorophenyl)thiourea] | > 60 | > 60 | > 16 | 16 | 60 | > 60 | > 49 | > 16 | > 60 | > 60 | > 60 | 47 | 49 | > 47 | – | 162 to 164
S=C(NCCc1c[nH]c2ccccc12)Nc1ccccc1Cl [Compound 13, 1-(2-(1H-Indol-3-yl)ethyl)-3-(2-chlorophenyl)thiourea] | 12 ± 0.9 | > 53 | > 11 | 11 | 53 | > 53 | > 49 | > 11 | > 53 | > 53 | > 53 | 47 | 49 | > 47 | – | 170 to 172
Fc1ccc(NC(=S)NCCc2c[nH]c3ccccc23)cc1 [Compound 17, 1-(2-(1H-Indol-3-yl)ethyl)-3-(4-fluorophenyl)thiourea] | > 53 | > 53 | > 30 | 30 | 53 | > 53 | > 53 | > 30 | > 53 | > 53 | > 53 | 44 | 53 | > 44 | – | –
Cc1ccc(NC(=S)NCCc2c[nH]c3ccccc23)cc1Cl [Compound 23, 1-(2-(1H-Indol-3-yl)ethyl)-3-(3-chloro-4-methylphenyl)thiourea] | > 17 | > 17 | > 10 | 10 | 17 | > 17 | > 25 | > 10 | > 17 | > 17 | > 17 | 44 | 25 | > 44 | – | 161 to 163
FC(F)(F)c1cccc(NC(=S)NCCc2c[nH]c3ccccc23)c1 [Compound 24, 1-(2-(1H-Indol-3-yl)ethyl)-3-(3-(trifluoromethyl)phenyl)thiourea] | > 16 | > 16 | > 9 | 9 | 16 | > 16 | > 23 | > 9 | > 16 | > 16 | > 16 | 44 | 23 | > 44 | – | 169 to 171
Cc1ccc(Cl)cc1NC(=S)NCCc1c[nH]c2ccccc12 [Compound 26, 1-(2-(1H-Indol-3-yl)ethyl)-3-(3-chloro-6-methylphenyl)thiourea] | > 17 | > 17 | > 12 | 12 | 17 | > 17 | 15 ± 1.2 | > 12 | > 17 | > 17 | > 17 | 45 | 42 | > 45 | showed activity | 163 to 165
CCCCc1ccc(NC(=S)NCCc2c[nH]c3ccccc23)c(C)c1 [Compound 27, 1-(2-(1H-Indol-3-yl)ethyl)-3-(4-butyl-2-methylphenyl)thiourea] | > 12 | > 12 | > 9.5 | 9.5 | 12 | > 12 | > 11 | > 9.5 | > 12 | > 12 | > 12 | 45 | 11 | > 45 | – | 172 to 174
Fc1ccc(NC(=S)NCCc2c[nH]c3ccccc23)cc1Cl [Compound 28, 1-(2-(1H-Indol-3-yl)ethyl)-3-(3-chloro-4-fluorophenyl)thiourea] | 20 ± 2.1 | > 32 | > 30 | 30 | 32 | > 32 | 13 ± 1.2 | > 30 | > 32 | > 32 | > 32 | 45 | 37 | > 45 | showed activity | 162 to 164
COc1c(C)c2c(c(O)c1C/C=C(\C)CCC(=O)O)C(=O)OC2 [Mycophenolic acid, mycophenolic acid, reference compound] | – | – | – | – | 13 | – | – | – | – | – | 1.5 ± 0.2 | – | – | – | – | –
